Assay results from patent US4983597A, “Beta-lactams as anticholesterolemic agents” (Merck & Co., Inc., priority 1989, dated 1991).

biological target: T1, HMG-CoA synthase (Rattus norvegicus, UniProt P17425); assay: HMG-CoA Synthase Inhibition Assay; assay type: biochemical; conditions: Table I; rat liver enzyme, 1-[14C]-acetyl-CoA incorporation
T1 construct: The livers from male Charles River CD rats (225-350 g) were homogenized; from tissue; host or cells: rat liver (male Charles River CD rats), 100,000 x g supernatant, ammonium sulfate and DEAE-52 fraction
T1 sequence (P17425 1-520): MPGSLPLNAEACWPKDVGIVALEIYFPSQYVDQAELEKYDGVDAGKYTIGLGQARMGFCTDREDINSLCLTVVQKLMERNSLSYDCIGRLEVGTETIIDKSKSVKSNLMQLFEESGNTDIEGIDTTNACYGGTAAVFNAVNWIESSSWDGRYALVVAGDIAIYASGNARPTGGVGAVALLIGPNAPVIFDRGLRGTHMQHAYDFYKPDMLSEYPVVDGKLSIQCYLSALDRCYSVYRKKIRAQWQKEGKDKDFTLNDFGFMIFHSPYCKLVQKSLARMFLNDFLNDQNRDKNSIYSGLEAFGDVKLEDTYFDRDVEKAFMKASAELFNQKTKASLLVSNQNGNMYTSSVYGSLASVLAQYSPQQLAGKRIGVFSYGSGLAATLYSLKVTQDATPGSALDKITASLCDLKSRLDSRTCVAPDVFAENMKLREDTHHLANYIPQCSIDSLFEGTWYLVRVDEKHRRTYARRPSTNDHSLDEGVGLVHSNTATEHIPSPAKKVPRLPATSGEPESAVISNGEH
Procedure: The intrinisic HMG-CoA synthase inhibition activity of the compounds of this invention is measured by the standard in vitro protocol described below:
The livers from male Charles River CD rats (225-350 g) were homogenized in 0.25 M sucrose which was adjusted with phenylmethylsulfonylfluoride (PMSF) and N-p-tosyl-1-lysine chloromethyl ketone (TLCK) so that the final concentration of each was […], respectively. The homogenate was centrifuged at 15,000× g for 20 minutes, the supernatant filtered through a fine nylon screen to remove most of the fat layer and recentrifuged at 100,000× g for 1 hour. This supernatant was removed and 1 M potassium phosphate, dithiothreitol (DTT) and ethylene glycolbis(β-aminoethyl ether)-N,N,N',N'-tetraacetic acid (EGTA) added to give a final concentration of 0.1 M (pH 7.2), 0.5 mM and 0.1 mM, respectively. Solid ammonium sulfate was added to 50% saturation to the protein solution, it was centrifuged at 15,000× g and the supernatant discarded. This precipitated protein could be stored at -70° C. for at least one month with very little loss of activity. The ammonium sulfate precipitate was dissolved in an minimal amount of 0.06 M potassium phosphate buffer (pH 7.2) containing 0.5 mM dithiothreitol and 0.1 mM EGTA (referred to as 0.06 M phosphate buffer) and dialyzed overnight against 2 liters of the same buffer to remove the ammonium sulfate and to inactivate HMG-CoA lyase [Clinkenbeard, et al., J. Biol. Chem. 250, 3108-3116(1975)].
The dialyzed extract was added to a column of DEAE-52 (Whatman) which had been equilibrated with 0.06 M phosphate buffer (10 mg of protein in 1 ml bed volume of the resin). The DEAE-cellulose was eluted with 0.06 M phosphate buffer until the optical density at 280 nm was essentially zero. This fraction contained the β-ketoacetyl-CoA thiolase activity. The HMG-CoA synthase was eluted from the column with 0.1 M phosphate buffer (pH 7.2) containing 0.5 mM DTT and […] EGTA, and was virtually free of all thiolase activity. The protein was precipitated by the addition of ammonium sulfate to give 50% saturation. This solution was stirred for 10 minutes at 4° C. and the precipitate collected by centrifugation at 15,000 rpm for 10 minutes. The supernatant was discarded and the precipitate dissolved in a minimum of 0.06 M phosphate buffer, pH 7.2 (about 10 ml) and the enzyme stored at -80° C.
HMG-CoA Synthase Inhibition Assay
Enzyme protein (ca. 24 mg) was added to a solution containing […] Tris-HCl (pH 8.0), 11.7 μM MgCl2, 1.17 μM ethylenediaminetetraacetic acid (EDTA), 0.58 μM dithiothreitol, and the indicated concentrations of the test compound (added as a 2 mg/ml solution in dimethylsulfoxide). The incubation took place in a volume of 0.085 ml at 30° in a shaking water bath. After 5 minutes, […] of a solution containing acetoacetyl-CoA and 0.1 μCi of 1-[^14 C]-acetyl-CoA was added to give a final concentrations of 0.1 and 0.4 μM, respectively. The incubation was continued for 10 more minutes and the reaction stopped by the addition of […] of the assay mixture to 0.2 ml of 6N HCl in a glass scintillation vial. The vial was heated for 1 hour at 120° after which time 0.2 ml more of 6N HCl was again added to each vial and the heating continued for another hour. Following this, 1.0 ml of 0.9% saline was added to each vial and finally 10 ml of scintillation liquid. Radioactivity was determined in a Packard Tri-Carb liquid scintillation counter. Percent inhibition is calculated by the formula: [formula]
IC50 values were determined by plotting the log of the concentration of the test compound verses the percentage inhibition and fitting a straight line to the resulting data by using the least squares method.

Row | IC50 | Compound
1 | 350 nM | CC[C@@H]1C(=O)N(S(=O)(=O)c2ccc(C)cc2)[C@@H]1COC(=O)c1ccc(C(=O)O)cc1 (relative stereo) [Table I x]
2 | 28 nM | CC[C@@H]1C(=O)N(S(=O)(=O)c2ccc(C)cc2)[C@@H]1COC(=O)c1ccc([N+](=O)[O-])cc1 (relative stereo) [Table I y]
3 | 69.5 nM | CCC[C@@H]1C(=O)N(S(=O)(=O)c2ccc(C)cc2)[C@@H]1COC(=O)c1ccc(OC)cc1 (relative stereo) [Table I z]
4 | 11 nM | CC[C@@H]1C(=O)N(S(=O)(=O)c2ccc(C)cc2)[C@@H]1COC(=O)c1ccco1 [Table I gg]
5 | 30 nM | CC[C@@H]1C(=O)N(S(=O)(=O)c2ccc(C)cc2)[C@@H]1COC(=O)c1ccc(OC)cc1 [Table I i]
6 | 200 nM | CC[C@H]1C(=O)N(S(=O)(=O)c2ccc(C)cc2)[C@H]1COC(=O)c1ccc(OC)cc1 [Table I j]

same assay, conditions: Table II; rat liver enzyme, 1-[14C]-acetyl-CoA incorporation

Row | Compound | IC50
7 | CC[C@H]1C(=O)N(S(=O)(=O)c2ccc(C)cc2)[C@H]1COC(=O)Cc1cc(OC)c(OC)c(OC)c1 (relative stereo) [Table II s] | 20 nM
8 | CC[C@H]1C(=O)N(S(=O)(=O)c2ccc(C)cc2)[C@H]1COC(=O)NC1CCCCC1 (relative stereo) [Table II w] | 54 nM
9 | CC[C@@H]1C(=O)N(S(=O)(=O)c2ccc(C)cc2)[C@@H]1COC(=O)[C@H](OC)c1ccccc1 [Table II d, cis-(3S), (4S)-3-Ethyl-4-[(R)-α-methoxyphenylacetoxyl]methyl-N-toluenesulfonyl-2-azetidinone] | 18 nM
10 | CO[C@H](C(=O)OC[C@@H]1CC(=O)N1S(=O)(=O)c1ccc(C)cc1)c1ccccc1 [Table II e] | 42 nM
11 | CO[C@@H](C(=O)OC[C@@H]1CC(=O)N1S(=O)(=O)c1ccc(C)cc1)c1ccccc1 [Table II f] | 50 nM

Continued, values first:

Row | IC50 | Compound
12 | 9.5 nM | CC[C@@H]1C(=O)N(S(=O)(=O)c2ccc(C)cc2)[C@@H]1COC(=O)/C=C/c1ccc(OC)cc1 (relative stereo) [Table II a]
13 | 31 nM | CC[C@@H]1C(=O)N(S(=O)(=O)c2ccc(C)cc2)[C@@H]1COC(=O)/C=C/c1cccnc1 (relative stereo) [Table II h]
14 | 2400 nM | CC[C@@H]1C(=O)N(S(=O)(=O)c2ccc(C)cc2)[C@@H]1COC(=O)Cc1ccco1 (relative stereo) [Table II l]
15 | 250 nM | CC[C@@H]1C(=O)N(S(=O)(=O)c2ccc(C)cc2)[C@@H]1COC(=O)/C=C/c1ccco1 (relative stereo) [Table II m]
16 | 24 nM | CC[C@@H]1C(=O)N(S(=O)(=O)c2ccc(C)cc2)[C@@H]1COC(=O)COc1ccccc1 (relative stereo) [Table II n]
17 | 2.1 nM | CCOc1ccc(CC(=O)OC[C@@H]2[C@H](CC)C(=O)N2S(=O)(=O)c2ccc(C)cc2)cc1C (relative stereo) [Table II o]
18 | 10 nM | CC[C@@H]1C(=O)N(S(=O)(=O)c2ccc(C)cc2)[C@@H]1COC(=O)Cc1ccccn1 (relative stereo) [Table II p]
19 | 42 nM | CC[C@H]1C(=O)N(S(=O)(=O)c2ccc(C)cc2)[C@H]1COC(=O)CSc1ccccc1 (relative stereo) [Table II q]
20 | 22 nM | CCOc1ccc(CC(=O)OC[C@H]2[C@@H](CC)C(=O)N2S(=O)(=O)c2ccc(C)cc2)cc1 (relative stereo) [Table II r]
21 | 38 nM | CC[C@H]1C(=O)N(S(=O)(=O)c2ccc(C)cc2)[C@H]1COC(=O)/C=C/c1cc(OC)c(OC)c(OC)c1 (relative stereo) [Table II t]
22 | 90 nM | CCCOc1c(Br)cc(/C=C/C(=O)OC[C@@H]2[C@H](CC)C(=O)N2S(=O)(=O)c2ccc(C)cc2)cc1OC (relative stereo) [Table II u]
23 | 52 nM | CC[C@H]1C(=O)N(S(=O)(=O)c2ccc(C)cc2)[C@H]1COC(=O)Nc1ccc(C)cc1 (relative stereo) [Table II v]
24 | 260 nM | CC[C@H]1C(=O)N(S(=O)(=O)c2ccc(C)cc2)[C@H]1COC(=O)Nc1ccc(C(F)(F)F)cc1 (relative stereo) [Table II x]
25 | 30 nM | CC[C@H]1C(=O)N(S(=O)(=O)c2ccc(C)cc2)[C@H]1COC(=O)Cc1ccc(OC)c(OC)c1 (relative stereo) [Table II y]
26 | 27 nM | CC[C@H]1C(=O)N(S(=O)(=O)c2ccc(C)cc2)[C@H]1COC(=O)/C=C/c1ccc(OC)c(OC)n1 (relative stereo) [Table II z]
27 | 11 nM | CC[C@@H]1C(=O)N(S(=O)(=O)c2ccc(C)cc2)[C@@H]1COC(=O)/C=C/c1ccc(OC)cc1 [Table II k]

same assay, conditions: Table III; rat liver enzyme, 1-[14C]-acetyl-CoA incorporation

Row | IC50 | Compound
28 | 110 nM | CC[C@H]1C(=O)N(S(=O)(=O)c2ccc(C)cc2)[C@H]1COS(=O)(=O)c1ccc(C)cc1 (relative stereo) [Table III]

same assay, conditions: Table IV; rat liver enzyme, 1-[14C]-acetyl-CoA incorporation

Row | IC50 | Compound
29 | 1500 nM | CCC[C@H]1C(=O)N(S(=O)(=O)c2ccc(C)cc2)[C@@H]1C=Cc1ccccc1 (relative stereo) [Table IV a]
30 | 2200 nM | CCC[C@H]1C(=O)N(S(=O)(=O)c2ccc(C)cc2)[C@H]1C=Cc1ccccc1 (relative stereo) [Table IV b]
31 | 1100 nM | Cc1ccc(S(=O)(=O)N2C(=O)[C@H](CO)[C@H]2C=Cc2ccccc2)cc1 (relative stereo) [Table IV c]
32 | 1100 nM | Cc1ccc(S(=O)(=O)N2C(=O)[C@H](CO)[C@@H]2C=Cc2ccccc2)cc1 (relative stereo) [Table IV d]
33 | 50000 nM | CC[C@@H]1C(=O)N(S(=O)(=O)c2ccc(C)cc2)[C@H]1C(C)=Cc1ccccc1 (relative stereo) [Table IV e]
34 | 430 nM | CC[C@@H]1C(=O)N(S(=O)(=O)c2ccc(C)cc2)[C@@H]1C(C)=Cc1ccccc1 (relative stereo) [Table IV f]

same assay, conditions: Table V; rat liver enzyme, 1-[14C]-acetyl-CoA incorporation

Row | IC50 | Compound
35 | 9900 nM | CC[C@H]1C(=O)N(S(=O)(=O)c2ccc(C)cc2)[C@H]1CNc1ccc(C(=O)O)cc1 (relative stereo) [Table V a, (±) cis-3-Ethyl-4-hydroxycarbonylphenylaminomethyl-N-toluenesulfonyl-2-azetidinone]
36 | 86 nM | CC[C@H]1C(=O)N(S(=O)(=O)c2ccc(C)cc2)[C@H]1CCc1ccccc1 (relative stereo) [Table V b]
37 | 120 nM | CCC1C(=O)N(S(=O)(=O)c2ccc(C)cc2)C1C(C)OC(=O)c1ccc(OC)cc1 (centres unmarked) [Table V c]
38 | 175 nM | CCC1C(=O)N(S(=O)(=O)c2ccc(C)cc2)C1C(C)Cc1ccccc1 (centres unmarked) [Table V d]
39 | 2000 nM | CCC1C(=O)N(S(=O)(=O)c2ccc(C)cc2)C1C(OC(=O)c1ccc(OC)cc1)c1ccccc1 (centres unmarked) [Table V e]
40 | 490 nM | CC(=O)OC(c1ccccc1)C(C)C1CC(=O)N1S(=O)(=O)c1ccc(C)cc1 (centres unmarked) [Table V f]
41 | 290 nM | CC(=O)OCC(C)C1CC(=O)N1S(=O)(=O)c1ccc(C)cc1 (centres unmarked) [Table V g]
